Laboratory results as given in US4971967A, “Quinolinecarboxylic acid derivatives, antibacterial compositions and use” (Kanebo Ltd, priority 1989, dated 1990).
Values after ≈ are worked out from the molar mass of the structure shown.

Experiments:
[1] = tested on: Pseudomonas aeruginosa E-2; test: Effect on treatment of general infectious disease, P. aeruginosa E-2 (Experiment 3); format: in vivo, ddY male mice infected with Pseudomonas aeruginosa; details: E2, 168 h, oral, 1 h after i.p. infection, 3.1×10^4 CFU/mouse, survival after one week
Protocol: Pseudomonas aeruginosa E-2 (3.1×10^4 CFU/mouse)
(§1) The test microorganisms were subjected to standing culture in Trypto-Soya Agar "Nissui" (made by Nissui Seiyaku K.K., Japan) at 37° C. for 16 to 18 hours. The culture was then diluted with PBS (Dulbecco's phosphate buffered saline) and mixed with an equivalent amount of 10% (w/v) Mucin (BACTO MUCIN BACTERIOLOGICAL, made by Difco Co.) to prepare a microorganism solution. The thus prepared microorganism solution (0.5 ml each) was intraperitoneally inoculated to ddY male mice (5 weeks age, weighing 25-28 g, 5 mice in each group), to infect the animals. One hour after the infection, the compound (A) or (J) of the present invention or the known compound (X) suspended in 1% (w/v) aqueous gum arabic or the known compound (Y) dissolved in sterilized distilled water was orally adiministered to mice.
(§2) The mice were daily observed for one week, and from the survival number of mice after one week, the 50% effective dose (ED50) was calculated by Weil method.

[2] = tested on: Bacillus subtilis ATCC 6633; test: Antibacterial activity (MIC), Bacillus subtilis ATCC 6633; format: cell-based
Procedure, shortened: (§3)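 Read-out is the MIC, obtained by the standard Japan Society of Chemotherapy method from 1000 μg/ml standard solutions made in sterile water.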

[3] = tested on: Escherichia coli NIHJ JC-2; test: Antibacterial activity (MIC), E. coli NIHJ JC-2; format: cell-based; details: NIHJJC2; Escherichia coli NIHJ JC-2, Gram -; read-out: Minimum inhibitory concentration (MIC)
Procedure, shortened: as §3

[4] = tested on: Staphylococcus aureus IID 803; test: Effect on treatment of general infectious disease, S. aureus IID 803 (Experiment 3); format: in vivo, ddY male mice infected with Staphylococcus aureus; details: IID803, 168 h, oral, 1 h after i.p. infection, 5.0×10^7 CFU/mouse, survival after one week
Protocol: Staphylococcus aureus IID 803 (5.0×10^7 CFU/mouse)
as §1, §2

[5] = tested on: Enterobacter aerogenes ATCC 13048; test: Antibacterial activity (MIC), Enterobacter aerogenes ATCC 13048; format: cell-based; details: Klebsiella aerogenes, ATCC13048; Enterobacter aerogenes ATCC 13048, Gram -; read-out: Minimum inhibitory concentration (MIC)
Procedure, shortened: as §3

infection = test: Protective effects against infection (Experiments 3 and 4); format: in vivo, ddY male mice; details: result in words
Protocol: as §1, §2
The procedure of Experiment 3 was repeated except that ddY male mice weighing 24 to 28 g were employed.

[6] = tested on: Morganella morganii IFO 3848; test: Antibacterial activity (MIC), Morganella morganii IFO 3848; format: cell-based; details: Morganella morganii, IFO3848, Morganella morganii IFO 3848, Gram -; read-out: Minimum inhibitory concentration (MIC)
Procedure, shortened: as §3

[7] = tested on: Pseudomonas aeruginosa E-2; test: Antibacterial activity (MIC), P. aeruginosa E-2; format: cell-based; details: E2; Pseudomonas aeruginosa E-2, Gram -; read-out: Minimum inhibitory concentration (MIC)
Procedure, shortened: as §3

[8] = tested on: Acinetobacter calcoaceticus AC 54; test: Antibacterial activity (MIC), Acinetobacter calcoaceticus AC 54; format: cell-based; details: Acinetobacter calcoaceticus, AC54, read-out: Minimum inhibitory concentration (MIC), Acinetobacter calcoaceticus AC 54, Gram -
Procedure, shortened: as §3

Escherichia coli KC-14 = test: Antibacterial activity (MIC), E. coli KC-14; format: cell-based; details: KC14; Escherichia coli KC-14, Gram -; read-out: Minimum inhibitory concentration (MIC)
Procedure, shortened: as §3

[9] = tested on: Salmonella typhimurium IID 971; test: Antibacterial activity (MIC), Salmonella typhimurium IID 971; format: cell-based; details: Salmonella enterica; Salmonella typhimurium IID 971, Gram -; read-out: Minimum inhibitory concentration (MIC)
Procedure, shortened: as §3

Structure (SMILES): CCN1CCN(c2c(F)cc3c(=O)c(C(=O)O)c4scc5n4c3c2N(C)C5)CC1 [Compound (J), 9,1-(Methylimino)methano-7-fluoro-8-(4-ethyl-1-piperazinyl)-5-oxo-5H-thiazolo[3,2-a]quinoline-4-carboxylic acid]
- ED50 [1]: 6.8 mg/kg
- MIC ([2]; Bacillus subtilis, ATCC6633, Bacillus subtilis ATCC 6633, Gram +, read-out: Minimum inhibitory concentration (MIC)): 0.025 µg/mL (≈ 0.06 µM)
- MIC [3]: 0.1 µg/mL (≈ 0.24 µM)
- ED50 [4]: 5.8 mg/kg
- MIC [5]: 0.1 µg/mL (≈ 0.24 µM)
- protective effects against infection (infection): excellent protective effects against infection
- MIC [6]: 0.1 µg/mL (≈ 0.24 µM)
- MIC [7]: 0.78 µg/mL (≈ 1.87 µM)

Structure (SMILES): CN1CCN(c2c(F)cc3c(=O)c(C(=O)O)c4scc5n4c3c2N(C)C5)CC1 [Compound (A), 9,1-(Methylimino)methano-7-fluoro-8-(4-methyl-1-piperazinyl)-5-oxo-5H-thiazolo[3,2-a]quinoline-4-carboxylic acid]
- ED50 [1]: 10.2 mg/kg
- Minimum inhibitory concentration (MIC) ([2]; Bacillus subtilis ATCC 6633, Gram +): 0.006 µg/mL
- MIC [3]: 0.05 µg/mL (≈ 0.124 µM)
- ED50 [4]: 5.8 mg/kg
- MIC [8]: 0.025 µg/mL (≈ 0.0621 µM)
- MIC [5]: 0.05 µg/mL (≈ 0.124 µM)
- protective effects against infection (infection): excellent protective effects against infection
- MIC [6]: 0.05 µg/mL (≈ 0.124 µM)
- MIC (Escherichia coli KC-14): 0.05 µg/mL (≈ 0.124 µM)
- MIC [7]: 0.78 µg/mL (≈ 1.94 µM)
- MIC [9]: 0.05 µg/mL (≈ 0.124 µM)
